Assay results as given in publication PMC9011347, “Small-Molecule Inhibitors Targeting Lipolysis in Human Adipocytes” (Journal of the American Chemical Society, 2022).

Experiments:
[1] = target: T1, c5 (aa 1–111 of human ATGL) (Homo sapiens, UniProt Q96AD5, G146T/N133S/S158T); test: TAG hydrolase assay, chimeric ATGL variants; format: biochemical, human and mouse; details: variant c5, NG-497 (10 μM) or Atglistatin (10 μM)
T1 construct: host or cells: Expi293 cells, cell lysate
Experimental: (§1) Figure 5 Analysis of chimeric proteins comprising human and mouse ATGL. (a) Schematic view of the minimal active domain of wild-type and chimeric ATGL variants (c1–c9). Nonidentical aa are indicated in blue and red for mouse and human ATGL, respectively. ATGL variants were expressed in Expi293 cells and TAG hydrolase activity was determined in cell lysates in the presence or absence of NG-497 (10 μM) and Atglistatin (10 μM), respectively. Inhibition of ATGL variants by respective inhibitors (tick mark) and lack of inhibition (cross) is indicated at the right edge. The expression of all ATGL variants was confirmed by Western blotting analysis (Figure S6). (b) Dose-dependent inhibition of human ATGL (aa 1–288) and c1 (human aa 1–158 and mouse aa 159–288) by NG-497. (c) Dose-dependent inhibition of mouse ATGL (aa 1–288) and c2 (mouse aa 1–158 and human aa 159–288) by Ai. IC50 values are shown in the insets. Data are presented as relative inhibition of respective DMSO controls and are indicated as mean ± SD. (d) 3D homology model of the minimal active domain of mouse ATGL (M1–L254) depicted as a cartoon. Residues 1–178 are in blue, and residues 179–254 are in gray. S47 and D166 comprising the active site are represented as green sticks. T101, C106, R109, N111, and S133 are colored in orange, A60, N68, I69, T93, C97, and T146 are colored in magenta. TEXT PRINTED IN THE PICTURE: (b) NG-497: IC50 [μM] (human): 1.3±0.1; IC50 [μM] (c1): 1.3±0.1 | (b) Ai: IC50 [μM] (human): n.det.; IC50 [μM] (c1): n.det. | (c) NG-497: IC50 [μM] (mouse): n.det.; IC50 [μM] (c2): n.det. | (c) Ai: IC50 [μM] (mouse): 2.5±0.3; IC50 [μM] (c2): 2.4±0.1 […]
(§2) We next generated variants by further stepwise humanization of c2. Variant c3 containing aa 1–23 of human ATGL was inhibited by Ai but not NG-497 (Figure 5a). […] Finally, variants of mouse ATGL containing aa 1–146 (c7) and 60–146 (c8) of human ATGL were inhibited by NG-497 but not Ai (Figure 5a).
(§3) Experimental details, materials, and methods
(§4) Expression of recombinant ATGL constructs and preparation of cell lysates. Expi293 cells were cultivated in Expi293 Expression Medium (GIBCO, Thermo Fisher Scientific, Waltham, USA) at standard conditions (37°C, 5% CO2, 95% humidified atmosphere, 125 rpm). DNA constructs containing ATGL from different species and chimeric ATGL variants in pcDNA3.1(+)myc-His C Vector were obtained from BioCat GmbH (Heidelberg, Germany). Cells were transfected with ExpiFectamine293 Transfection Kit (GIBCO) in Opti-Mem reduced serum medium (GIBCO) according to the manufacturer’s instructions. After 48 h, cells were harvested by centrifugation and washed three times with PBS. Cells were disrupted in buffer A (0.25 M sucrose, 1 mM EDTA, 1 mM dithiothreitol, 20µg/ml leupeptin, 2 µg/ml antipain, 1 µg/ml pepstatin, pH 7.0) by sonication (Virsonic 475, Virtis, Gardiner, USA). Nuclei and debris were removed by centrifugation at 1,000 g and 4°C for 10 min. Protein concentrations were determined using Bio-Rad protein assay (Bio-Rad 785, Bio-Rad Laboratories, Munich, Germany) using BSA as standard.
(§5) Expression and purification of mouse CGI-58. CGI-58 was expressed and purified as described 1. In brief, the coding sequence of mouse Cgi-58 was cloned into pHis-Sumo and co-transformed with the plasmid pTf16 expressing the chaperone Tig into E. coli BL21(DE3). Cells were cultured overnight at 37°C and 180 rpm in the presence of 40 µg/ml kanamycin and 34 µg/ml chloramphenicol. Thereafter, cells were transferred into fresh LB medium, grown until OD600 of 0.6, and expression was induced by the addition of 0.5 mM IPTG. After overnight incubation at 30°C, cells were harvested at 4,500 x g and 4°C for 20 min, washed in 1x PBS, and resuspended in lysis buffer (20 mM Tris/HCl pH 7.8, 300 mM NaCl, 30 mM imidazole, 0.1% IGEPAL CA-630, 3.5 mM β-mercaptoethanol, 20 µg/ml leupeptin, 2 µg/ml antipain and 1 µg/ml pepstatin). Cells were incubated with 1 […]

[2] = target: T2, Variant c4 (aa 1–69 of human ATGL) (Homo sapiens, UniProt Q96AD5, F97C/G146T/H109R/I93T/N133S/S106C/S111N/S158T/S96G/V101T); test: TAG hydrolase assay, chimeric ATGL variants; format: biochemical, human and mouse; details: variant c4, NG-497 (10 μM) or Atglistatin (10 μM)
T2 construct: host or cells: Expi293 cells, cell lysate
T2 sequence (Q96AD5 1-288 I93T/S96G/F97C/V101T/S106C/H109R/S111N/N133S/G146T/S158T): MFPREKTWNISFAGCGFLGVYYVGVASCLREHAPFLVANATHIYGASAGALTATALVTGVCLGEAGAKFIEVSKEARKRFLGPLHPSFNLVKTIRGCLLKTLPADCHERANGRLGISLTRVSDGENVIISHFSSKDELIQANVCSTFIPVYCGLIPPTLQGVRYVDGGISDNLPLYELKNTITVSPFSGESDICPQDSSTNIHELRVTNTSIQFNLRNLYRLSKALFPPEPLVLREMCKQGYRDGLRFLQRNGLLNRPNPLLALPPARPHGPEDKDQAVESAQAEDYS
Experimental: as §1, §2, §3, §4, §5

T1 sequence (Q96AD5 1-288 N133S/G146T/S158T): as the sequence (Q96AD5 1-288 I93T/S96G/F97C/V101T/S106C/H109R/S111N/N133S/G146T/S158T) above, with T93I, G96S, C97F, T101V, C106S, R109H, N111S counted along it

CCOc1ccc(-c2cc(OC)cc(C(=O)OC(C)C)n2)cc1 [NG-497]
inhibition of TAG hydrolase activity [1]: neither inhibited
inhibition of TAG hydrolase activity [2]: neither inhibited

CN(C)C(=O)Nc1cccc(-c2ccc(N(C)C)cc2)c1 [Atglistatin, reference compound]
inhibition of TAG hydrolase activity [1]: neither inhibited
inhibition of TAG hydrolase activity [2]: neither inhibited
